Assays:
Albino rats = experiment: Heat Induced Dermal Trauma Assay; type: in vivo; settings: topical in ethanol, treatment 0 post burn, skin disc weighed 3 hours later, 6 rats, control 500.7±13.6
Experimental: A) Heat Induced Dermal Trauma Assay ,
Test Animal: Albino rats, 120-140 g.
Procedure: The ventral area of the rats is shaved and depilated with a commercially available depilatory on the afternoon of the day prior to trauma. (The depilatory is applied for 15 minutes and then removed by washing with water.) The following day, a 25 mm diameter circle is traced on the abdomen beneath the sternum with a colored pen. A brass stamp of the same size, through which hot water (53°C) is circulated, is firmly applied to the center of the colored outline for 45 seconds while the rats are lightly anesthetized with ether. The test materials in ethanol are administered topically to the tramatized area immediately after withdrawing the stamp. The animals are sacrificed 3 hours later, at which time the ventral skin is removed and a piece of skin form the center of the marked area is punched out with a No. 10 cork bore and weighed.
End Point: The weight in mg of the inflammed piece of skin which is removed from the marked area with the cork bore.

[1] = Mouse Acute Oral Toxicity (LD50); settings: in vivo, oral by stomach tube, single dose, mice observed for deaths over 14 days
Experimental: B) Mouse Acute Oral Toxicity (LD50)
Protocol: The test material is suspended in an aqueous vehicle containing carboxymethyl cellulose. A volume of 10 ml/kg body weight is used for each dose. The test material is given orally by stomach tube to 24 male Swiss-Webster mice, 6 per group, on the first day of the test, using doses of 250, 500, 1000 and 2000 mg./kg. body weight of test compound. Another group of 6 mice, receiving the vehicle only, serve as the control. The mice are observed for deaths over a 14-day period.

COc1ccc2c(c1)CSc1cc(CC(=O)O)ccc1C2=O [8-methoxy-6,11-dihydro-dibenzo-[b.e.]-thiepin-11-one-3-acetic acid]
Mean Disc. Wt. mg.± S.E. (Albino rats; dose 0.006 mg.): 279.6 ± 13.17 mg
Mean Disc. Wt. mg.± S.E. (Albino rats; dose 0.025 mg.): 241.6 ± 7.56 mg
Mean Disc. Wt. mg.± S.E. (Albino rats; dose 0.1 mg.): 197.5 ± 25.07 mg
Mean Disc. Wt. mg.± S.E. (Albino rats; dose 0.4 mg.): 177.9 ± 18.98 mg

O=C(O)Cc1ccc2c(c1)SCc1cc(Cl)ccc1C2=O [8-chloro-6,11-dihydrodibenzo-[b.e.]-thiepin-11-one-3-acetic acid]
LD50 at 336 h [1]: ~300 mg/kg
Mean Disc. Wt. mg.± S.E. (Albino rats; dose 0.006 mg.): 296.8 ± 21.8 mg
Mean Disc. Wt. mg.± S.E. (Albino rats; dose 0.025 mg.): 218.8 ± 6.5 mg
Mean Disc. Wt. mg.± S.E. (Albino rats; dose 0.1 mg.): 201.4 ± 12.0 mg
Mean Disc. Wt. mg.± S.E. (Albino rats; dose 0.4 mg.): 147.2 ± 10.2 mg

O=C(O)Cc1ccc2c(c1)[S+]([O-])Cc1ccccc1C2=O (stereo not shown) [6,11-dihydrodibenzo-[b.e]-thiepin-11-one-3-acetic S-oxide]
LD50 at 336 h [1]: > 2000 mg/kg
